One data set relates to radish sprouts. Description: Growth promotion effect test I of water-solubilized coenzyme Q10. The conditions noted are these: high concentration of 100 ppm of coenzyme Q10. The class given is in vivo. The protocol:
A Kimtowel was matted on a petri dish, 100 mL of a growth-promoting agent in Example 1 was poured thereon, and 20 seeds of radish sprouts (produced by Noguchi Seed and Seedling Laboratory) were placed thereon. This petri dish was stored at room temperature under a light shielding condition. After 7 days, the sprouts were collected, and a total length and a root length of the radish sprouts were measured. Data as the control was a result obtained by measuring the total length of the plant in the same way as described above, except that city water was used in place of the growth-promoting agent (data as the control described below was a result obtained by the same way described above). Numerical values in the Table represent a mean of measured values unless otherwise explained (Numerical values in the Table described below represent the same described above). A growth rate was calculated based on the following formula (Numerical A growth rate was calculated by the same way described above): [(A−B)/B]×100, wherein A denotes a measured value of the total length of the plant cultivated in the presence of the growth-promoting agent containing coenzyme Q10, and B denotes a measured value of the total length of the plant as the control plant.

The test system of the next data set is Spinach. Description: Growth promotion effect test IV of water-solubilized coenzyme Q10. The class given is in vivo. The conditions noted are these: growth-promoting agent in Example 3 (CoQ10 1 ppm), after 7 days. The protocol: (§1) A required number of petri dishes were prepared, the Kimtowel was matted on the each petri dish, 100 mL of the growth-promoting agent in Example 3 was poured thereon, and 40 seeds (produced by Noguchi Seed and Seedling Laboratory) of the plants described in Table 4 were placed thereon. These petri dishes were stored at room temperature under the light shielding condition. After 7 days, sprouts were collected, and the total length of the plants described in Table 4 was measured. The growth rate was calculated based on the following formula (A growth rate was calculated by the same way described above): [(A−B)/B]×100, wherein A denotes a measured value of the total length of the plant cultivated in the presence of the growth-promoting agent containing CoQ10, and B denotes the measured value of the total length of the plant as the control.

The subject of the next data set is Komatsuna. The data set is described as above. The format is in vivo. The conditions noted are these: growth-promoting agent in Example 3 (CoQ10 1 ppm), after 7 days. The protocol: as §1
The next data set concerns Burdock. The description is as above. The class given is in vivo. The conditions noted are these: growth-promoting agent in Example 3 (CoQ10 1 ppm), after 7 days. The method, then: as §1
In a further data set the test system is Crown daisy. The data set is described as above. The class given is in vivo. The conditions noted are these: growth-promoting agent in Example 3 (CoQ10 1 ppm), after 7 days. The protocol:
as §1

Another data set has as its system Wheat. Description: Growth promotion effect test V of water-solubilized coenzyme Q10. The class given is in vivo. Particulars: 30 seeds, same way as test IV (CoQ10 1 ppm). The protocol: (§2) A required number of petri dishes were prepared, the Kimtowel was matted on the each petri dish, 100 mL of the growth-promoting agent in Example 3 was poured thereon, and 40 seeds (produced by Noguchi Seed and Seedling Laboratory) of the plants described in Table 4 were placed thereon. These petri dishes were stored at room temperature under the light shielding condition. After 7 days, sprouts were collected, and the total length of the plants described in Table 4 was measured. The required number of petri dishes was prepared, and the growth-promoting effect on seeds (produced by Noguchi Seed and Seedling Laboratory) of the plants described in Table 5 was examined in the same way as in Growth promotion effect test IV of water-solubilized coenzyme Q10. 30 seeds of wheat were examined. Buckwheat and snow peas were stored at room temperature under the light shielding condition, and collected after 8 days. Spinach was stored at room temperature under the light shielding condition, and collected after 9 days.

Another data set concerns Snow peas. Described as above. The class given is in vivo. Particulars: same way as test IV (CoQ10 1 ppm). The protocol:
as §2

For a further data set, the system named is Green onions. Described as above. The format is in vivo. Particulars: same way as test IV (CoQ10 1 ppm). The method, then: as §2
For another data set, the system named is Chives. The data set is described as above. The class given is in vivo. Particulars: same way as test IV (CoQ10 1 ppm). The method, then:
as §2

Another data set concerns Buckwheat. The data set is described as above. The format is in vivo. Particulars: same way as test IV (CoQ10 1 ppm). The method, then:
as §2

Data set [1] in a line: Precipitation of coenzyme Q10 in the growth-promoting agent. The format is physicochemical. Particulars: growth-promoting agent diluted with city water, up to 100 ppm. The protocol: First, 1.25 g of water-solubilized coenzyme Q10 (Aqua Q10-P40 containing coenzyme Q10 in an amount of 40% by mass manufactured by Nisshin Pharma Inc.) was diluted using 500 ml of city water to prepare a solution of 1000 ppm of coenzyme Q10. This was diluted with city water to prepare a growth-promoting agent in a solubilized form containing coenzyme Q10 (sometimes described as CoQ10) in the amount of 10 ppm or 100 ppm.

The mark [2] stands for this setting: room temperature, light shielding.
The mark [3] stands for this setting: room temperature, light shielding, collected after 8 days.

For the compound `COC1=C(OC)C(=O)C(C/C=C(\C)CC/C=C(\C)CC/C=C(\C)CC/C=C(\C)CC/C=C(\C)CC/C=C(\C)CC/C=C(\C)CC/C=C(\C)CC/C=C(\C)CCC=C(C)C)=C(C)C1=O` [CoQ10, coenzyme Q10], the concentration disorder entry in the data set on radish sprouts is given as “without causing a concentration disorder”. Further, the Growth increase rate is on record as 10.5% in the data set with Spinach (versus control); 15.6% with Komatsuna (versus control); 12.7% in the data set on Burdock (versus control); 17.9% in the data set with Crown daisy (versus control); 44.6% in the data set on Wheat (versus control); 17.1% in the data set on Snow peas (after 8 days, versus control). In addition, the Growth increase rate in the data set on Green onions (versus control) stood at 19.4%; with Chives (versus control), 22.4%; with Buckwheat (after 8 days, versus control), 12.8%. The “Measured value (total length)” value in the data set on Spinach (setting [2]) is 4.22 cm; with Komatsuna (setting [2]) it was 8.87 cm; in the data set on Burdock (setting [2]), 4.96 cm; with Crown daisy (setting [2]), 5.46 cm; with Wheat (setting [2]), 14.16 cm; in the data set on Snow peas (setting [3]), 29.31 cm. The “Measured value (total length)” value is listed as 3.02 cm in the data set on Green onions (setting [2]), 2.90 cm with Chives (setting [2]) and 25.01 cm in the data set with Buckwheat (setting [3]). For the same compound, in data set [1], the “precipitation of coenzyme Q10” value is “not precipitated”.

These data come from patent publication US20100179061A1, “PLANT GROWTH PROMOTER” (Nisshin Pharma Inc., priority 2007, published 2010).
